Assay results taken from patent publication US9988343B2, “Inhibitors of histone deacetylase” (Dana-Farber Cancer Institute, Inc., priority 2013, dated 2018).

What was measured:
pSTAT3 (Tyr705) = experiment: Immunoblot of STAT3 phosphorylation in MM cells; type: cell-based, human; conditions: RPMI8226 infected with shRNAs, bortezomib 5 nM, 6 hours (FIG. 7C)
Method: MM cells were harvested and lysed using sodium dodecyl sulfate-polyacrylamide gel electrophoresis (SDS-PAGE) sample buffer containing 60 mM Tris-HCl, pH 6.8, 2% SDS, 10% glycerol, 0.005% bromophenol blue, 5 mM ethylenediaminetetraacetic acid, 5 mM NaF, 2 mM […], 1 mM phenylmethylsulfonyl fluoride (PMSF), 5 μg/mL leupeptin, and 5 μg/mL aprotinin; and then heated at 100° C. for 5 min. After the determination of protein concentration using DC protein assay (Bio-Rad, Hercules, Calif.), β-mercaptoethanol (β-ME) was added to the whole-cell lysates to a 2% final β-ME concentration. The whole-cell lysates were subjected to SDS-PAGE, transferred to nitrocellulose membranes (Bio-Rad, Hercules, Calif.) or polyvinylidene fluoride membranes (Millipore, Billerica, Mass.), and immunoblotted with anti-histone H3, -HDAC1, -HDAC2, -HDAC3, -Acetyl-histone H2A (Lysine 5) (Ac-H2AK5), -Acetyl-histone H2B (lysine 5) (Ac-H2 BK5), -Acetyl-histone H3 (lysine 9) (Ac-H3K9), -Acetyl-histone H4 (lysine 8) (Ac-H4K8), -glyceraldehyde-3-phosphate dehydrogenase (GAPDH), -poly (ADP-ribose) polymerase (PARP), -caspase-3, -caspase-8, -caspase-9, -Signal transducers and activators of transcription 3 (STAT3), -phospho-STAT3 (pSTAT3) (tyrosine 705), -pSTAT3 (serine 727), -p21, -Janus kinase 2 (JAK2), -acetylated-Lysine (Ac-K), and anti-phosphorylated-tyrosine antibodies (Abs; Cell Signaling Technology, Beverly, Mass.).
MM.1S, U266, and INA6 cells were cultured with DMSO control or LBH589 (50 and 100 nM) for 8 h.
MM.1S cells pretreated with or without 50 nM LBH589 for 8 hours were then treated with IL-6 (10 ng/mL) or BMSC culture supernatants (#1 and #2) for 15 minutes. Whole cell lysates were subjected to immunoblotting with anti-pSTAT3 (Tyr705) and STAT3 Abs.
In addition, INA-6 cells were cultured with DMSO control, LBH589 (50 nM), TSA (1 μM) or SAHA (2 μM) for 8 hours. Whole cell lysates were subjected to immunoblotting with anti-pSTAT3 (Tyr705), STAT3, and GAPDH Abs.
Whole cell lysates were subjected to immunoblotting with anti-pSTAT3 (Tyr705), -STAT3, -pERK1/2 (Thr202/204), and -ERK1/2 Abs (FIG. 6G).
See, e.g., Hideshima et al. Blood. 2006, 107:4053-4062. Since bortezomib upregulates activated STAT3 in head and neck squamous cell carcinoma (see, e.g., Li et al. Mol Cancer Ther 2009. 8:2211-2220), experiments were conducted to test whether bortezomib enhances p-STAT3 in MM cells. RPMI8226 cells were infected with Luc, HDAC1 (sh1), HDAC2 (sh1) or HDAC3 (sh1) shRNAs and then treated with or without bortezomib (5 nM) for 6 hours. Whole cell lysates were subjected to immunoblotting with anti-STAT3, -pSTAT3 (Tyr705), -pERK1/2 (Thr202/204) and -ERK1/2 Abs.

HDAC3 knockdown cells = experiment: MTT cell growth in HDAC3 knockdown cells; type: cell-based, human
Method: HDAC1, HDAC2 and HDAC3 pLKO.1 shRNA vectors were obtained from the RNA Interference Screening Facility at the Dana-Farber Cancer institute. Recombinant lentivirus was produced and infection of MM cells was performed using standard methods in the art.
In addition, the effect of bortezomib on HDAC3 knockdown cells was examined. RPMI8226 (FIG. 7B, left panel) and MM.1S (FIG. 7B, right panel) cells were infected with Luc or HDAC3 (#1 and #2) shRNAs. Cells were then cultured with or without bortezomib (3 nM) for 48 hours and cell growth was assessed by MTT assay. Data represent mean±SD from triplicate cultures.
Also, experiments were conducted to determine whether dual inhibition of both HDAC3 and HDAC6 was more cytotoxic than either HDAC3 or HDAC6 when combined with bortezomib. Cell growth was assayed by MTT assay in the presence of Luc (control), sh1 or sh2 shRNAs against HDAC3 alone, or in combination with a selective HDAC6 inhibitor—tubastatin-A, or in combination with both tubastatin-A and bortezomib.

[1] = tested on: JMJ family demethylases, including several variants of JMJD2 and JMJD1; conditions: Kruidenier et al. 2012; cited from earlier work
JMJD2A in HeLa cells = conditions: read-out: IC50 H3K9me3 demethylation by JMJD2A, King et al. 2010; cited from earlier work
PHF8 = PHF8 (Homo sapiens, UniProt Q9UPP1); conditions: King et al. 2010; cited from earlier work
PHF8, sequence (Q9UPP1 whole entry, species assumed): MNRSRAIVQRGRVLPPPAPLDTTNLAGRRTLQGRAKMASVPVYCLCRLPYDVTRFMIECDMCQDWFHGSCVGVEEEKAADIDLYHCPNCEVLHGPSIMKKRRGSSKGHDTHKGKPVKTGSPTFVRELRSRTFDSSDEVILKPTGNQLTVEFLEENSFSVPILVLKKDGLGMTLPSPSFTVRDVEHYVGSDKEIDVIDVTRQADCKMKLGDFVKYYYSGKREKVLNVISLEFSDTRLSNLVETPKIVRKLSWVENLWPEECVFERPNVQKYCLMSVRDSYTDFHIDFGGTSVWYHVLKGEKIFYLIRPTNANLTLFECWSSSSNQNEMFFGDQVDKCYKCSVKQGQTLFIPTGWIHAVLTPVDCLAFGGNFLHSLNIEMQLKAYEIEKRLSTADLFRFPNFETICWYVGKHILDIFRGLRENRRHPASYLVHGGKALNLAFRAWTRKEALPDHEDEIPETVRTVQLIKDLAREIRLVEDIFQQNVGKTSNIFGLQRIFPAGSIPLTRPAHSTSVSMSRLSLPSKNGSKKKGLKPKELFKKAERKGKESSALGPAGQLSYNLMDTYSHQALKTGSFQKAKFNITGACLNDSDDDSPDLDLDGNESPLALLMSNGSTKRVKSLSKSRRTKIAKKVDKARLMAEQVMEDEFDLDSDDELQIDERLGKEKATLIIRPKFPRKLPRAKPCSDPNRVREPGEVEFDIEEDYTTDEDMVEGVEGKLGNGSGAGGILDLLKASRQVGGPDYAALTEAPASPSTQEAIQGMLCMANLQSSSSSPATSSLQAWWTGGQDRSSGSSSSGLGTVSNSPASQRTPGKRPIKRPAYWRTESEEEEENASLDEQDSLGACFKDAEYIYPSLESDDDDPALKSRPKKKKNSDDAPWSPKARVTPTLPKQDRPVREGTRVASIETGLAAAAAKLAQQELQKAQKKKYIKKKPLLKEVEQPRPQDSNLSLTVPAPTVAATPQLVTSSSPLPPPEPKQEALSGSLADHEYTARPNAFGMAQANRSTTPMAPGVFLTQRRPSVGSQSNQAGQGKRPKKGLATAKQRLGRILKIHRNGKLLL

MM cell lines = experiment: Cell growth inhibition assay (MTT) in MM cell lines; type: cell-based, human; conditions: MM cell lines, 48 hours, MTT (FIG. 1A)
Method: To measure proliferation of MM cells, the rate of DNA synthesis was measured by ^3[H]-thymidine (Perkin-Elmer) uptake.
The growth inhibitory effect of Merck60 (HDACL, 2 inhibitor previously reported as compound #60 by Method et al. Bioorg. Med. Chem. Lett. 2008. 18(3):973-8) versus MS275 (HDAC1, 2, 3 inhibitor) was examined in MM cell lines using MTT assay. MM cells were cultured with Merck60 (left panel) or MS275 (right panel) for 48 hours. Cell growth was assessed by MTT assay. All experiments were performed 3 times in quadruplicate. Data represent mean±SD.
Cell growth was assessed by MTT assay. All experiments were performed 3 times in quadruplicate. Data represent mean±SD.

RPMI8226 cells [2] = experiment: Combination with bortezomib, MTT cytotoxicity, combination index; type: cell-based, human; conditions: for CI (combination index): RPMI8226, MTT, 24 h
Method: The combined effect of drugs was analyzed by isobologram analysis using the Compusyn software program (ComboSyn, Inc.); a combination index (CI)<1 is indicative of a synergistic effect.
All experiments were performed 3 times in quadruplicate. Data represent mean±SD (FIG. 7D).

RPMI8226 cells [3] = experiment: Immunoblot of histone acetylation in RPMI8226 cells; type: cell-based, human; conditions: RPMI8226, 12 h, compared with Merck60 (FIG. 1C)
[4] = HDAC inhibitor 1 μM + bortezomib 4 nM
[5] = HDAC inhibitor 2 μM + bortezomib 2 nM
[6] = HDAC inhibitor 2 μM + bortezomib 3 nM
[7] = HDAC inhibitor 2 μM + bortezomib 4 nM
[8] = HDAC inhibitor 3 μM + bortezomib 2 nM
[9] = HDAC inhibitor 3 μM + bortezomib 3 nM
[10] = HDAC inhibitor 3 μM + bortezomib 4 nM

Row | SMILES | MM cell growth inhibition (MM cell lines) | CI (combination index) (RPMI8226 cells [2]; [4]) | CI (combination index) (RPMI8226 cells [2]; [5]) | CI (combination index) (RPMI8226 cells [2]; [6]) | CI (combination index) (RPMI8226 cells [2]; [7]) | CI (combination index) (RPMI8226 cells [2]; [8]) | CI (combination index) (RPMI8226 cells [2]; [9]) | CI (combination index) (RPMI8226 cells [2]; [10]) | other results
1 | CC(C)CC(NC(=O)[C@H](Cc1ccccc1)NC(=O)c1cnccn1)B(O)O (stereo in doubt) [bortezomib, [(1R)-3-methyl-1-[[(2S)-1-oxo-3-phenyl-2-[(pyrazinylcarbonyl)amino]propyl]amino]butyl]boronic acid] |  |  |  |  |  |  |  |  | p-STAT3 (pSTAT3 (Tyr705)): upregulated p-STAT3; cytotoxicity in HDAC3 knockdown cells (HDAC3 knockdown cells; RPMI8226 and MM.1S with HDAC3 shRNAs, bortezomib 3 nM, 48 hours, MTT (FIG. 7B)): significantly enhances cytotoxicity
2 | O=C([O-])CCNc1cc(N2CCc3ccccc3CC2)nc(-c2ccccn2)n1.[Na+] [GSK J1, 3-((6-(4,5-dihydro-1H-benzo[d]azepin-3(2H)-yl)-2-(pyridin-2-yl)pyrimidin-4-yl)amino)propanoate, monosodium salt] |  |  |  |  |  |  |  |  | activity against a panel of additional JMJ family demethylases [1]: inactive
3 | O=C(O)c1ccc(O)c2ncccc12 [IOX1, 8-hydroxy-5-quinolinecarboxylic acid] |  |  |  |  |  |  |  |  | IC50 (JMJD2A in HeLa cells): 87 µM; IC50 (PHF8): 13.3 µM
4 | Nc1ccccc1NC(=O)c1ccc(CNC(=O)OCc2cccnc2)cc1 [MS275] | significant MM cell growth inhibition | 0.81 | 0.56 | 0.63 | 0.76 | 0.53 | 0.62 | 0.77 | cytotoxicity in combination with bortezomib (RPMI8226 cells [2]; RPMI8226, bortezomib 0-4 nM + 1-3 μM, 24 hours (FIG. 7A)): synergistic cytotoxicity; acetylation of histones (H2A, H2B, H3 and H4) (RPMI8226 cells [3]): more potently induced acetylation of histones
5 | CC(=O)Nc1ccc(C(=O)Nc2cc(-c3cccs3)ccc2N)cc1 [Merck60, 4-acetamido-N-(2-amino-5-(thiophen-2-yl)phenyl)benzamide] | only a modest growth inhibition effect | 1.19 | 1.54 | 1.21 | 1.34 | 1.45 | 1.4 | 1.55 | CI (combination index) (RPMI8226 cells [2]; HDAC inhibitor 1 μM + bortezomib 2 nM): 1.95; CI (combination index) (RPMI8226 cells [2]; HDAC inhibitor 1 μM + bortezomib 3 nM): 1.06
6 | CN1CCc2c(c3ccccc3n2Cc2ccc(C(=O)NO)cc2)C1 [tubastatin-A] |  |  |  |  |  |  |  |  | cytotoxicity of combined HDAC3 knockdown with bortezomib (HDAC3 knockdown cells; MTT, tubastatin-A added (FIG. 8B)): further enhanced cytotoxicity
